# Source: patent publication US20130023553A1, “PEGYLATED OPIOIDS WITH LOW POTENTIAL FOR ABUSE AND SIDE EFFECTS” (Nektar Therapeutics, priority 2010, published 2013)
# Read-outs that look alike come from different tables or passages of the source.
# Key:
# human mu opioid receptor [1] = molecular target: T1, human mu opioid receptor (Homo sapiens, UniProt P35372); test: cell-based; details: for Emax: read-out: % max effect, mu opioid receptor
# T1 construct: expressed in transfected cells; host or cells: CHO cells
# Description: (§1) Studies were conducted in CHO cells heterologously expressing the cloned human mu, kappa or delta opioid receptors. cAMP was measured using a cAMP HiRange homogenous time-resolved fluorescence assay (HTRF Assay), that is based on a competitive immunoassay principle (Cisbio, Cat.#62AM6PEC).
# (§2) Briefly, suspensions of cells expressing either the mu, kappa or delta opioid receptors were prepared in buffer containing 0.5 mM isobutyl-methyl xanthine (IBMX). […] EC50 values were calculated for each compound from a sigmoidal dose-response plot of concentrations versus maximum response. To determine if the compounds behaved as full or partial agonists in the system, the maximal response at the highest tested concentrations of compounds were compared to that produced by a known full agonist.
# squirrel monkeys = test: Monkey self-administration model of addictive potential
# From the text: Dose-related effects of the test articles were examined, using two or more doses of each drug in 3-4 subjects in a double alternation schedule in which each unit dose (or vehicle) was used in two consecutive sessions before a change in unit dose.
# Addictive potential of opioid compounds and opioid conjugates of the invention may be assessed through the use of squirrel monkey models as known in the art.
# Under the double alternation schedule, each unit dose (or vehicle) was available for intravenous self-administration for two consecutive sessions before the unit dose was changed. In this way, it was possible to establish the function relating unit dose of intravenous drug to (i) number of injections per session, and/or (ii) the percentage of total responses that occur on the lever leading to self-administration (injection-lever responding, % ILR). Unit doses of drugs ranged from 0.01 to 3.2 mg/kg/injection.
# [2] = Pharmacokinetics following intravenous (IV) dosing; type: in vivo, Sprague-Dawley rats; details: male, Sprague-Dawley, rat, plasma; for Cmax: read-out: Cmax; for Vd: read-out: Vss
# From the text: (§3) There were 3 rats/group. All animals were food fasted overnight. […] The predose sample was collected from the JVC.
# (§4) Following the last collection point, the animals were euthanized.
# human mu opioid receptor [3] = molecular target: T1, human mu opioid receptor; test: biochemical; type: binding
# Description: (§5) Radioligand displacement was measured using scintillation proximity assays (SPA).
# (§6) Briefly, serial dilutions of the test compounds were placed in a 96-well plate to which were added SPA beads, membrane and radioligand. The assay conditions for each opioid receptor subtype are described in Table 10 below. The plates were incubated for 8 hours-overnight at room temperature, spun at 1000 rpm to pellet the SPA beads, and radioactivity was measured using the TopCount® microplate Scintillation counter. Specific binding at each concentration of test compound was calculated by subtracting the non-specific binding measured in the presence of excess cold ligand. IC50 values were obtained by non-linear regression of specific binding versus concentration curves and Ki values were calculated using Kd values that were experimentally pre-determined for each lot of membrane preparations.
# [4] = molecular target: T2, human kappa opioid receptor (Homo sapiens, UniProt P41145); test: cell-based; details: for Emax: maximal response at the highest tested concentration, read-out: % max effect, kappa opioid receptor
# T2 construct: expressed in transfected cells; host or cells: CHO cells
# Description: as §1, §2
# [5] = molecular target: T2, human kappa opioid receptor; test: biochemical; type: binding
# Description: as §5, §6
# Male CD-1 mice = test: Assessment of CNS side effects in mice (Straub tail, muscle rigidity, pinna reflex)
# From the text: The objective of this study was to provide an approximation of the side effect profile of various oligomeric conjugates for comparison to the parent compounds by measuring various gross behavioral and physiological signs following administration of compound.
# Additional evaluations included muscle rigidity and pinna reflex.
# Male CD-1 mice from Charles River Laboratories, Raleigh, N.C., weighing from 16-18 grams were maintained on a regular light/dark cycle (lights on 0600-1800) with ad libitum food and water for 1 week before commencement of testing. N=2 per treatment condition, i.e., separate mice for each dose of each test article, injection was performed via a 25-gauge ⅝-inch needle on a 1-mL tuberculin syringe for the s.c. route and a 22-gauge stainless steel mouse feeding tube for the p.o. route (Becton, Dickinson & Co., Franklin Lakes, N.J.). Each treatment condition was divided about evenly between two observers. […] Test article was administered (s.c. or p.o., and the mouse was placed immediately in the observation chamber). One-half, 1, 2, and 3 hours later, the animal was observed undisturbed for gross signs such as locomotor ataxia, tremor, hyperactivity, hypoactivity, convulsions, hindlimb splay, and Straub tail, and then removed and assessed for muscle tone (normal, rigid, flaccid), pinna reflex (presence or absence), righting reflex (intact or lost), and placing (whether or not the forepaws are extended when the mouse is placed near a surface).
# Each of the tables show the number of animals responding at each dose, where N=2. […] A bolded value indicates the lowest dose at which a response was detected.
# [6] = Pharmacokinetics following oral (PO) dosing; type: in vivo, Sprague-Dawley rats; details: male, Sprague-Dawley, rat, plasma; for Cmax: read-out: Cmax; for Tmax: read-out: Tmax (converted)
# From the text: as §3, §4
# [7] = maximal response at the highest tested concentration
# [8] = read-out: EC50, mu opioid receptor
# [9] = hydroxycodone series, 1 mg/kg IV, Mean ± SD
# [10] = hydroxycodone series, 1 mg/kg IV, Mean ± SD, read-out: T1/2(z)
# [11] = CHO-K1 membranes, [3H]DAMGO 6 nM, read-out: Ki, Mu opioid receptor
# [12] = hydroxycodone series, 5.0 mg/kg oral, Mean ± SD
# T2 sequence (P41145 whole entry): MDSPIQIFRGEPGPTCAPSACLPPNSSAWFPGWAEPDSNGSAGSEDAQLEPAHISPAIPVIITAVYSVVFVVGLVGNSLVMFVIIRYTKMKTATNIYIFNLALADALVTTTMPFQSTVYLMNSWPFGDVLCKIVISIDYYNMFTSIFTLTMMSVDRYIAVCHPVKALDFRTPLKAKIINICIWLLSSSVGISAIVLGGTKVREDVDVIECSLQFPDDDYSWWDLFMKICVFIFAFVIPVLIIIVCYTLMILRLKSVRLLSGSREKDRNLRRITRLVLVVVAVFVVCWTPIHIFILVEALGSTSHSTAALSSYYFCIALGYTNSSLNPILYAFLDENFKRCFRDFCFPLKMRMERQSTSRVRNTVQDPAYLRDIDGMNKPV
# T1 sequence (P35372 whole entry): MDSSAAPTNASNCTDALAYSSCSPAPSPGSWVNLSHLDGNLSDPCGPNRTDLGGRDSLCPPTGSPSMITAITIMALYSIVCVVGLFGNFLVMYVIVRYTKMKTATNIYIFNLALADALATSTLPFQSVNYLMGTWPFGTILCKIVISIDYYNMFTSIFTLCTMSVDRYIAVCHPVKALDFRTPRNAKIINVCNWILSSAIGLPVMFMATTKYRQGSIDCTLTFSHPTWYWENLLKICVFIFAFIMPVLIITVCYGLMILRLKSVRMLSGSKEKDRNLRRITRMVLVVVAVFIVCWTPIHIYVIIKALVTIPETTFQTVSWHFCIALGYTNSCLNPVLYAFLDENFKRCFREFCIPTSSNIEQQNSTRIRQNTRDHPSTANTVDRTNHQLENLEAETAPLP
smiles,measurement,setting,value
"COCCOCCOCCOC1CCC2(O)C3Cc4ccc(OC)c5c4C2(CCN3C)C1O5 (stereo not drawn) [α-6-mPEG3-O-hydroxycodone, α-6-mPEG3-O-oxycodone]",Emax,human mu opioid receptor [1]; [7],108%
same,EC50,human mu opioid receptor [1]; [8],2.83 µM
same,subjects showing addictive behavior,squirrel monkeys; 0.1 mg/kg/injection,25%
same,subjects showing addictive behavior,squirrel monkeys; 0.3 mg/kg/injection,50%
same,subjects showing addictive behavior,squirrel monkeys; 1 mg/kg/injection,100%
same,AUC,[2]; [9],230 ng·h/mL
same,AUC(0-inf),[2]; [9],233 ng·h/mL
same,MRT last,[2]; [9],32.5 min
same,clearance,[2]; [9],71.7 ± 4.99 mL/min/kg
same,Cmax,[2]; [9],746 ± 2.08 ng/mL
same,half-life,[2]; [10],48.5 ± 7.83 min
same,Vd,[2]; [9],2.62 ± 0.206 L/kg
same,Ki,human mu opioid receptor [3]; [11],0.775 µM
COCCOC1C=CC2C3Cc4ccc(OC)c5c4C2(CCN3C)C1O5 (stereo not drawn) [α-6-mPEG1-O-codeine],Emax,human mu opioid receptor [1]; [7],80%
same,EC50,human mu opioid receptor [1]; [8],8.57 µM
same,Emax,[4],51%
same,AUC,"[2]; iv, 1 mg/kg",258 ng·h/mL
same,AUC(0-inf),"[2]; iv, 1 mg/kg",262 ng·h/mL
same,MRT last,"[2]; iv, 1 mg/kg",32.2 min
same,clearance,"[2]; iv, 1 mg/kg",64.6 ± 8.75 mL/min/kg
same,Cmax,"[2]; iv, 1 mg/kg",723 ± 31.2 ng/mL
same,half-life,"[2]; iv, 1 mg/kg, read-out: T1/2(2)",42.1 ± 4.84 min
same,Vd,"[2]; iv, 1 mg/kg",2.22 ± 0.899 L/kg
same,Ki,human mu opioid receptor [3]; [11],1.82 µM
same,Ki,[5],54.7 µM
"COCCOCCOCCOCCOCCOCCOCCOC1CCC2(O)C3Cc4ccc(OC)c5c4C2(CCN3C)C1O5 (stereo not drawn) [α-6-mPEG7-O-hydroxycodone, α-6-mPEG7-O-oxycodone]",Emax,human mu opioid receptor [1]; [7],101%
same,EC50,human mu opioid receptor [1]; [8],7.45 µM
same,injection lever responses (% ILR),squirrel monkeys; 0.03 mg/kg/injection,only food lever responses
same,AUC,[2]; [9],238 ng·h/mL
same,AUC(0-inf),[2]; [9],263 ng·h/mL
same,MRT last,[2]; [9],54.3 min
same,clearance,[2]; [9],63.3 ± 2.99 mL/min/kg
same,Cmax,[2]; [9],489 ± 26.5 ng/mL
same,half-life,[2]; [10],87 ± 3.25 min
same,Vd,[2]; [9],5.31 ± 0.139 L/kg
same,Ki,human mu opioid receptor [3]; [11],1.61 µM
same,"Straub Tail, fold difference relative to parent compound","Male CD-1 mice; PO, 1/2 responding",30 fold
same,"Loss Pinna, fold difference relative to parent compound","Male CD-1 mice; PO, 2/2 responding",30 fold
same,"Muscle Rigidity, fold difference relative to parent compound","Male CD-1 mice; PO, 2/2 responding",30 fold
same,"Straub Tail, fold difference relative to parent compound","Male CD-1 mice; PO, 2/2 responding",100 fold
same,"Muscle Rigidity, fold difference relative to parent compound","Male CD-1 mice; SC, 1/2 responding",>300 fold
same,"Straub Tail, fold difference relative to parent compound","Male CD-1 mice; SC, 1/2 responding",10 fold
same,"Loss Pinna, fold difference relative to parent compound","Male CD-1 mice; SC, 2/2 responding",100 fold
same,"Muscle Rigidity, fold difference relative to parent compound","Male CD-1 mice; SC, 2/2 responding",30 fold
same,"Straub Tail, fold difference (reduction in CNS activity) relative to parent compound","Male CD-1 mice; SC, 2/2 responding",10 fold
same,bioavailability,"[6]; po, 5 mg/kg",28.1%
same,AUC,[6]; [12],340 ng·h/mL
same,MRT last,[6]; [12],178 min
same,AUC(0-inf),"[6]; hydroxycodone series, 5.0 mg/kg oral, Mean ± SD, * n = 2",370 ng·h/mL
same,half-life,"[6]; hydroxycodone series, 5.0 mg/kg oral, Mean ± SD, * n = 2, read-out: T1/2(z)",115 ± 29.2 min
same,Cmax,[6]; [12],114 ± 38 ng/mL
same,Tmax,"[6]; hydroxycodone series, 5.0 mg/kg oral, median value",120 min
COCCOCCOC1C=CC2C3Cc4ccc(OC)c5c4C2(CCN3C)C1O5 (stereo not drawn) [α-6-mPEG2-O-codeine],Emax,human mu opioid receptor [1]; [7],75%
same,EC50,human mu opioid receptor [1]; [8],5.14 µM
same,EC50,[4],40.1 µM
same,Emax,[4],59%
same,AUC,"[2]; iv, 1 mg/kg",242 ng·h/mL
same,AUC(0-inf),"[2]; iv, 1 mg/kg",243 ng·h/mL
same,MRT last,"[2]; iv, 1 mg/kg",31.5 min
same,clearance,"[2]; iv, 1 mg/kg",69 ± 7.57 mL/min/kg
same,Cmax,"[2]; iv, 1 mg/kg",685 ± 41 ng/mL
same,half-life,"[2]; iv, 1 mg/kg, read-out: T1/2(2)",35.3 ± 2.78 min
same,Vd,"[2]; iv, 1 mg/kg",2.25 ± 0.166 L/kg
same,Ki,human mu opioid receptor [3]; [11],1.38 µM
same,Ki,[5],22.6 µM
same,AUC,"[6]; po, 5 mg/kg",5.85 ng·h/mL
same,AUC(0-inf),"[6]; po, 5 mg/kg",6.98 ng·h/mL
same,MRT last,"[6]; po, 5 mg/kg",62 min
same,bioavailability,"[6]; po, 5 mg/kg",0.57%
same,Cmax,"[6]; po, 5 mg/kg",3.47 ± 0.606 ng/mL
same,half-life,"[6]; po, 5 mg/kg, read-out: T1/2(2)",97.6 ± 28.4 min
same,Tmax,"[6]; po, 5 mg/kg",15 min
COCCOCCOCCOCCOCCOCCOC1C=CC2C3Cc4ccc(OC)c5c4C2(CCN3C)C1O5 (stereo not drawn) [α-6-mPEG6-O-codeine],Emax,human mu opioid receptor [1]; [7],80%
same,EC50,human mu opioid receptor [1]; [8],97.4 µM
same,Emax,[4],21%
same,Ki,human mu opioid receptor [3]; [11],14.2 µM
same,Ki,[5],> 160 µM
COCCOCCOCCOCCOC1C=CC2C3Cc4ccc(OC)c5c4C2(CCN3C)C1O5 (stereo not drawn) [α-6-mPEG4-O-codeine],Emax,human mu opioid receptor [1]; [7],99%
same,EC50,human mu opioid receptor [1]; [8],22.1 µM
same,AUC,"[2]; iv, 1 mg/kg",253 ng·h/mL
same,AUC(0-inf),"[2]; iv, 1 mg/kg",257 ng·h/mL
same,MRT last,"[2]; iv, 1 mg/kg",27.5 min
same,clearance,"[2]; iv, 1 mg/kg",65.9 ± 10.4 mL/min/kg
same,Cmax,"[2]; iv, 1 mg/kg",746 ± 70 ng/mL
same,half-life,"[2]; iv, 1 mg/kg, read-out: T1/2(2)",57.1 ± 43.8 min
same,Vd,"[2]; iv, 1 mg/kg",2.3 ± 0.72 L/kg
same,Ki,human mu opioid receptor [3]; [11],2.89 µM
same,Ki,[5],97 µM
same,AUC,"[6]; po, 5 mg/kg",42.2 ng·h/mL
same,AUC(0-inf),"[6]; po, 5 mg/kg",44.5 ng·h/mL
same,MRT last,"[6]; po, 5 mg/kg",83.8 min
same,bioavailability,"[6]; po, 5 mg/kg",3.47%
same,Cmax,"[6]; po, 5 mg/kg",31.1 ± 13.1 ng/mL
same,half-life,"[6]; po, 5 mg/kg, read-out: T1/2(2)",118 ± 60 min
same,Tmax,"[6]; po, 5 mg/kg",15 min
COCCOCCOCCOC1C=CC2C3Cc4ccc(O)c5c4C2(CCN3C)C1O5 (stereo not drawn) [α-6-mPEG3-O-morphine],EC50,human mu opioid receptor [1],0.27 µM
same,Emax,human mu opioid receptor [1],100%
same,subjects showing addictive behavior,squirrel monkeys; 0.1 mg/kg/injection,33%
same,subjects showing addictive behavior,squirrel monkeys; 0.3 mg/kg/injection,all animals
same,Ki,human mu opioid receptor [3],0.0507 µM
